Test results from US8247211B2, “Glycopeptide antibiotics” (American Cyanamid Company, priority 2001, dated 2012).

Legend:
Enterococcus sp. = assay: In vitro antibacterial evaluation: minimum inhibitory concentration (MIC), broth dilution method; type: cell-based
Method in brief: (§1)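 Following NCCLS approved standard M7-A2, compounds are serially diluted from 64 to 0.06 μg/mL in Muller-Hinton II […] and inoculated at 5×10^5 CFU/mL; the MIC is the minimum concentration at which growth is inhibited.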

Escherichia coli = assay: as above; type: cell-based
Method in brief: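 First, organisms are seeded at 5×10^5 CFU/mL into Muller-Hinton II […]. Next, antibiotic is applied across 64-0.06 μg/mL by broth dilution (NCCLS M7-A2). Finally, the lowest inhibitory concentration is recorded as MIC.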

Staphylococcus sp. = assay: as above; type: cell-based; details: for MIC Staphylococcus haemolyticus (GC 4546): strain GC 4546; for MIC Coagulase Negative Staphylococcus (GC 4547): strain GC 4547; for MIC Coagulase Negative Staphylococcus (GC 4548): strain GC 4548; for MIC Coagulase Negative Staphylococcus (GC 4549): strain GC 4549; for MIC Coagulase Negative Staphylococcus (GC 4551): strain GC 4551; for MIC Coagulase Negative Staphylococcus (ID-3941): strain ID-3941
Method in brief: as §1

Streptococcus sp. = assay: as above; type: cell-based
Method in brief: as §1

[1] = system: Enterococcus faecalis (GC 2246), vancomycin resistant strain; assay: Acute lethal infection in mice (ED50); type: in vivo; details: female CD-1 mice, intraperitoneal challenge, intravenous dose 30 min. after infection, 7 day survival ratios
Method in brief: (§2)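 Median effective dose is calculated from 7-day survival ratios pooled across three separate tests. Mice (female CD-1) receive an intraperitoneal bacterial challenge in broth or hog gastric mucin, then intravenous drug 30 min later, five animals per dose level.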

[2] = system: Staphylococcus aureus-SMITH (GC 4543); assay: Acute lethal infection in mice (ED50); type: in vivo; details: female CD-1 mice, intraperitoneal challenge, intravenous dose 30 min. after infection, 7 day survival ratios
Method in brief: as §2

[3] = broth dilution, 18 hours at 35° C.
[4] = strain GC 4543, 18 hours at 35° C.
[5] = broth dilution, 5×10^5 CFU/mL, 18 hours at 35° C.

CC(c1ccccc1)C1NC(=O)CNC(=O)C(CO)NC(=O)C(C(O)C2CNC(=N)N2C2OC(CO)C(O)C(O)C2O)NC(=O)C(C(O)C2CNC(=N)N2)NC(=O)C(Cc2ccc(OC3OC(CO)C(OC4OC(COC(=O)C(c5ccccc5)c5ccccc5)C(O)C(O)C4O)C(O)C3O)cc2)NC1=O (stereo not drawn) [Example 96c, Cyclo[glycyl-β-methylphenylalanyl-O-[4-O-[6-O-(diphenylacetyl)hexopyranosyl)hexopyranosyl]tyrosyl-3-(2-iminoimidazolidin-4-yl)seryl-3-(3-hexopyranosyl-2-iminoimidazolidin-4-yl)serylseryl]]
0.29 mg/kg: median effective dose (ED50), Staphylococcus aureus-SMITH (GC 4543) [2]
1 µg/mL: MIC Enterococcus faecalis (GC 2242) (Enterococcus sp.; Enterococcus faecalis (GC 2242), broth dilution, 18 hours at 35° C.) | MIC Enterococcus faecalis (GC 2242) (Enterococcus sp.; strain GC 2242) | MIC Enterococcus faecium (GC 4557) (Enterococcus sp.; strain GC 4557) | MIC Staphylococcus aureus (ATCC 29213) (Staphylococcus sp.; [3]) | MIC Staphylococcus aureus (GC 4542) (Staphylococcus sp.; [3]) | MIC Staphylococcus aureus (GC 4544) (Staphylococcus sp.; [3]) | MIC Coagulase Negative Staphylococcus (GC 4547) (Staphylococcus sp.) | MIC Coagulase Negative Staphylococcus (GC 4549) (Staphylococcus sp.) | MIC Coagulase Negative Staphylococcus (GC 4551) (Staphylococcus sp.)
64 µg/mL: MIC Escherichia coli (ATCC 25922) (Escherichia coli; strain ATCC 25922)
5.2 mg/kg: median effective dose (ED50), Enterococcus faecalis (GC 2246) [1]
<0.06 µg/mL: MIC Streptococcus agalactiae (GC 4564) (Streptococcus sp.; Streptococcus agalactiae (GC 4564), broth dilution, 18 hours at 35° C.) | MIC Streptococcus pneumoniae (GC 4565) (Streptococcus sp.; Streptococcus pneumoniae (GC 4565), broth dilution, 18 hours at 35° C.) | MIC Streptococcus pyogenes (ID-3187) (Streptococcus sp.; Streptococcus pyogenes (ID-3187), broth dilution, 18 hours at 35° C.) | MIC Streptococcus agalactiae (GC 4564) (Streptococcus sp.; strain GC 4564) | MIC Streptococcus pneumoniae (GC 4565) (Streptococcus sp.; strain GC 4565) | MIC Streptococcus pyogenes (ID-3187) (Streptococcus sp.; strain ID-3187)
0.25 µg/mL: MIC Coagulase Negative Staphylococcus (GC 4548) (Staphylococcus sp.)
2 µg/mL: MIC Enterococcus faecalis (ATCC 29212) (Enterococcus sp.; strain ATCC 29212) | MIC Enterococcus faecium (GC 2243) (Enterococcus sp.; strain GC 2243) | MIC Enterococcus faecalis (GC 4552) (Enterococcus sp.; strain GC 4552) | MIC Enterococcus faecalis (GC 4553) (Enterococcus sp.; strain GC 4553) | MIC Enterococcus faecalis (GC 4554) (Enterococcus sp.; strain GC 4554) | MIC Enterococcus faecium (GC 4556) (Enterococcus sp.; strain GC 4556) | MIC Enterococcus avium (GC 4558) (Enterococcus sp.; strain GC 4558)
0.5 µg/mL: MIC Staphylococcus aureus (GC 1131) (Staphylococcus sp.; [3]) | MIC Staphylococcus aureus (GC 4541) (Staphylococcus sp.; [3]) | MIC Staphylococcus aureus (GC 4545) (Staphylococcus sp.; [3]) | MIC Staphylococcus aureus-SMITH (GC 4543) (Staphylococcus sp.; [4]) | MIC Staphylococcus haemolyticus (GC 4546) (Staphylococcus sp.) | MIC Coagulase Negative Staphylococcus (ID-3941) (Staphylococcus sp.) | MIC Staphylococcus aureus-SMITH (GC 4543) (Staphylococcus sp.; strain SMITH GC 4543, broth dilution, 18 hours at 35° C.)

CCCC(CCC)C(=O)OCC1OC(OC2C(CO)OC(Oc3ccc(CC4NC(=O)C(C(C)c5ccccc5)NC(=O)CNC(=O)C(CO)NC(=O)C(C(O)C5CNC(=N)N5C5OC(CO)C(O)C(O)C5O)NC(=O)C(C(O)C5CNC(=N)N5)NC4=O)cc3)C(O)C2O)C(O)C(O)C1O (stereo not drawn) [Example 99c, Cyclo[glycyl-β-methylphenylalanyl-O-[4-O-[6-O-(2-propylpentanoyl)hexopyranosyl]-hexopyranosyl]tyrosyl-3-(2-iminoimidazolidin-4-yl)seryl-3-(3-hexopyranosyl-2-iminoimidazolidin-4-yl)serylseryl]]
<0.5 µg/mL: MIC Streptococcus agalactiae (GC 4564) (Streptococcus sp.; [5]) | MIC Streptococcus pneumoniae (GC 4565) (Streptococcus sp.; [5]) | MIC Streptococcus pyogenes (ID-3187) (Streptococcus sp.; [5])
2 µg/mL: MIC Enterococccus faecium (GC 4557) (Enterococcus sp.; [5]) | MIC Staphylococcus aureus (GC 1131) (Staphylococcus sp.; strain GC 1131) | MIC Staphylococcus aureus (GC 4541) (Staphylococcus sp.; strain GC 4541) | MIC Staphylococcus aureus (GC 4544) (Staphylococcus sp.; strain GC 4544) | MIC Coagulase Negative Staphylococcus (GC 4551) (Staphylococcus sp.) | MIC Coagulase Negative Staphylococcus (GC 4551) (Staphylococcus sp.; [3])
0.52 mg/kg: median effective dose (ED50), Staphylococcus aureus-SMITH (GC 4543) [2]
4 µg/mL: MIC Enterococccus avium (GC 4558) (Enterococcus sp.; [5]) | MIC Enterococccus faecalis (ATCC 29212) (Enterococcus sp.; [5]) | MIC Enterococccus faecalis (GC 4552) (Enterococcus sp.; [5]) | MIC Enterococccus faecalis (GC 4553) (Enterococcus sp.; [5]) | MIC Enterococccus faecalis (GC 4554) (Enterococcus sp.; [5]) | MIC Enterococccus faecium (GC 2243) (Enterococcus sp.; [5]) | MIC Enterococccus faecium (GC 4556) (Enterococcus sp.; [5]) | MIC Enterococcus faecalis (GC 2242) (Enterococcus sp.; [5])
4.3 mg/kg: median effective dose (ED50), Enterococcus faecalis (GC 2246) [1]
1 µg/mL: MIC Staphylococcus aureus (ATCC 29213) (Staphylococcus sp.; strain ATCC 29213) | MIC Staphylococcus aureus (GC 4542) (Staphylococcus sp.; strain GC 4542) | MIC Staphylococcus aureus-SMITH (GC 4543) (Staphylococcus sp.; [4]) | MIC Staphylococcus aureus-SMITH (GC 4543) (Staphylococcus sp.; strain GC 4543, broth dilution, 18 hours at 35° C.) | MIC Staphylococcus aureus (GC 4545) (Staphylococcus sp.; strain GC 4545) | MIC Staphylococcus haemolyticus (GC 4546) (Staphylococcus sp.) | MIC Staphylococcus haemolyticus (GC 4546) (Staphylococcus sp.; [3]) | MIC Coagulase Negative Staphylococcus (GC 4547) (Staphylococcus sp.) | MIC Coagulase Negative Staphylococcus (GC 4547) (Staphylococcus sp.; [3]) | MIC Coagulase Negative Staphylococcus (GC 4548) (Staphylococcus sp.) | MIC Coagulase Negative Staphylococcus (GC 4548) (Staphylococcus sp.; [3]) | MIC Coagulase Negative Staphylococcus (GC 4549) (Staphylococcus sp.) | MIC Coagulase Negative Staphylococcus (GC 4549) (Staphylococcus sp.; [3]) | MIC Coagulase Negative Staphylococcus (ID-3941) (Staphylococcus sp.) | MIC Coagulase Negative Staphylococcus (ID-3941) (Staphylococcus sp.; [3])
64 µg/mL: MIC Escherichia coli (ATCC 25922) (Escherichia coli; 5×10^5 CFU/mL, 18 hours at 35° C.)
